Each block holds one molecule with its values, some of them ahead of it.
Tests used:
Puccinia Recondita = experiment: Preventive fungicidal activity (5 days) against Puccinia Recondita on wheat; assay type: in vivo; conditions: wheat; for Activity P5 NT (reduction of leaf area affected, parts developed during the test): non-treated parts (NT)
Procedure: Determination of the preventive fungicidal activity (5 days) against Puccinia Recondita on wheat.
(§1) Leaves of wheat plants of the Salgemma variety, grown in pots in a conditioned environment at 20° C. and 70% of Relative Humidity (RH) were treated by spraying both sides of the leaves with the compound under examination (see Table 4 hereunder) dispersed in a hydroacetonic solution at 20% by volume of acetone.
After remaining 5 days in a conditioned environment, the plants were sprayed on both sides of the leaves with an aqueous suspension of conidia of Puccinia Recondita (2 mg of inoculum per 1 ml of solution for infection).
After spraying, the plants were kept in a humidity-saturated environment at a temperature ranging from 18 to 24° C. for the incubation period of the fungus (1 day).
At the end of this period, the plants were put in a greenhouse with a relative humidity (RH) of 70% and at a temperature of 18-24° C. for 14 days.
At the end of this period, the external symptoms of the pathogen appeared and it was therefore possible to proceed with the visual evaluation of the intensity of the infection, both on the parts treated directly with the products (T) and on the parts developed during the implementation of the test (NT).
(§2) The fungicidal activity is expressed as a percentage of the reduction, with respect to non-treated seedlings (comparison), in the area of the leaf affected by the disease (100=full effectiveness; 0=zero effectiveness).

wheat seedlings = experiment: Phytotoxicity (percentage of leaf necrosis) on wheat seedlings; assay type: in vivo; conditions: for Phytotoxicity % N.F. (leaf necrosis): wheat seedlings, scale 0-100
Procedure: as §1
At the same time, an evaluation of the phytotoxicity was effected (percentage of leaf necrosis) induced on the wheat seedlings by the application of the products: in this case the evaluation scale ranges from 0 (completely healthy plant) to 100 (completely necrotic plant).

Uromyces Appendiculatus = experiment: Preventive fungicidal activity (5 days) against Uromyces Appendiculatus on beans; assay type: in vivo
Procedure: Determination of the preventive fungicidal activity (5 days) against Uromyces Appendiculatus on beans.
(§3) Bean plants cv. Borlotto of Vigevano, grown in pots in a conditioned environment, were treated by spraying both sides with the products under examination in a hydroacetonic solution with 20% by volume of acetone (vol./vol.).
After remaining 5 days in a conditioned environment at 23° C. and 70% of relative humidity, the plants were sprayed on the lower side with an aqueous suspension of spores of Uromyces Appendiculatus (200,000 spores/cc); after remaining 24 hours in a humidity-saturated environment, they were re-transferred to the conditioned environment.
After this period, the external symptoms of the pathogen appeared and it was therefore possible to proceed with the visual evaluation of the intensity of the infection.
as §2

bean seedlings = experiment: Phytotoxicity (percentage of leaf necrosis) on bean seedlings; assay type: in vivo; conditions: scale 0-100
Procedure: as §3
At the same time, an evaluation of the phytotoxicity was effected (percentage of leaf necrosis) induced on the bean seedlings by the application of the products: in this case the evaluation scale ranges from 0 (completely healthy plant) to 100 (completely necrotic plant).

Sphaerotheca Fuliginea = experiment: Preventive fungicidal activity (7 days) against Sphaerotheca Fuliginea on cucumbers; assay type: in vivo
Procedure: Determination of the preventive fungicidal activity (7 days) against Sphaerotheca Fuliginea on cucumbers.
(§4) Cucumber plants cv. Lungo of China, grown in pots in a conditioned environment were treated by spraying both sides with the products under examination in a hydroacetonic solution with 20% by volume of acetone (vol./vol.).
7 days after the treatment, the plants were sprayed on the upper side with an aqueous suspension of spores of Sphaerotheca Fuliginea (200,000 spores/cc); they were then re-transferred to the conditioned environment.
At the end of the period of incubation (8 days), the evaluation of the intensity of the infection was finally effected.
as §2

cucumber seedlings = experiment: Phytotoxicity (percentage of leaf necrosis) on cucumber seedlings; assay type: in vivo; conditions: scale 0-100
Procedure: as §4
At the same time, an evaluation of the phytotoxicity was effected (percentage of leaf necrosis) induced on the cucumber seedlings by the application of the products: in this case the evaluation scale ranges from 0 (completely healthy plant) to 100 (completely necrotic plant).

[1] = Accelerated stability test of 5% solutions in commercial solvents (54° C., 2 weeks, HPLC); assay type: physicochemical
Procedure: Stability tests of the compositions containing compounds having formula (I) in a solvent
In order to evaluate the chemical stability of the compounds having Formula (I) in a solvent, 5% solutions were prepared, containing 250 mg of compounds Nr. 1, 17, 39 and 40, dissolved in 4.75 g of various commercial solvents used for the preparation of emulsifiable concentrates.
The resulting solutions were put in an oven at 54° C. for 2 weeks (according to Cipac MT 46.1 update 2012) and then analyzed by means of HPLC in order to verify the concentration of the active ingredient contained therein. The percentage of degradation of the compound having Formula (I) was therefore obtained, after the accelerated stability test.

Helmintosporium teres = experiment: Preventive fungicidal activity (7 days) against Helmintosporium teres on barley; assay type: in vivo; conditions: for Activity P7: 125 ppm, scale 0 (completely infected plant) to 100 (healthy plant)
Procedure: Determination of the preventive fungicidal activity (7 days) against Helmintosporium teres on barley. […] After remaining 7 days in a conditioned environment, the plants were sprayed on both sides of the leaves with an aqueous suspension of conidia of Helmintosporium teres (50,000 conidia/cc+Tween 20-1 drop/100 ml). The plants were then kept in a controlled environment during the incubation period of the fungus (wet room 1 day for infection, 3 days in a cell with 70% of R.H. and at a temperature of […] for the incubation period, 3 days for completion in a wet room, biological cycle 12 days). At the end of this period (12 days), the fungicidal activity was evaluated according to an evaluation percentage scale from 0 (completely infected plant) to 100 (healthy plant).

Parastagonospora nodorum = experiment: Preventive activity (7 days) against Parastagonospora nodorum on wheat; assay type: in vivo; conditions: 250 ppm
Procedure: Determination of the preventive activity (7 days) of the compounds having formula (I) against Parastagonospora nodorum on wheat. […] After remaining 48 hours in a humidity-saturated environment, at 21° C., the plants were transferred for the incubation period (10-12 days) to a conditioned environment at 70% of R.H. and at a temperature of 24° C. At the end of this period, the external symptoms of the pathogen appeared and it was therefore possible to proceed with the visual evaluation of the intensity of the infection. The fungicidal activity was expressed as a percentage of the reduction, with respect to non-treated seedlings (comparison), in the area of the leaf affected by the disease (100=full effectiveness; 0=zero effectiveness). Table 7 indicates the results obtained by carrying out the test described with compound Nr. 12, compared with a compound described in WO2008/101682: […]

- percentage of degradation ([1]; solvent ADMA 10 (N,N-dimethyldecanamide)): 1.07%
- percentage of degradation ([1]; solvent Alkamuls T/20 (ethoxylated sorbitan monolaurate)): 58.61%
- percentage of degradation ([1]; solvent CME (rapeseed methyl ester)): 10.79%
- percentage of degradation ([1]; solvent FMPC (N-formylmorpholine and propylene carbonate)): 1.46%
- percentage of degradation ([1]; solvent Green 25 (dimethylsulfoxide, acetophenone, 2-ethylhexyl acetate)): 2.07%
- percentage of degradation ([1]; solvent Propylene carbonate): 3%
- percentage of degradation ([1]; solvent Purasolv BL (butyl lactate)): 100%
- percentage of degradation ([1]; solvent RPDE (dimethyl glutarate, dimethyl succinate, dimethyl adipate)): 0.78%
Molecule: CCN(C)C=Nc1cc(Br)c(SCc2cccc(C(F)(F)F)c2)nc1C [Compound 1, N-ethyl-N-methyl-N′-5bromo-2-methyl-6-{[3-(trifluoromethyl)benzyl]thio}pyridyl-3-formamidine]
- Activity P5 NT (reduction of leaf area affected, parts developed during the test) (Puccinia Recondita; 125 ppm): 75%
- Activity P5 T (reduction of leaf area affected, parts treated directly) (Puccinia Recondita; 125 ppm): 98%
- Activity P5 NT (reduction of leaf area affected, parts developed during the test) (Puccinia Recondita; 250 ppm): 85%
- Activity P5 T (reduction of leaf area affected, parts treated directly) (Puccinia Recondita; 250 ppm): 100%
- effectiveness in containing the disease (in words) (Puccinia Recondita; summary of Table 4): effective in containing the disease
- Phytotoxicity % N.F. (leaf necrosis) (wheat seedlings; 125 ppm): 0 % N.F.
- Phytotoxicity % N.F. (leaf necrosis) (wheat seedlings; 250 ppm): 0 % N.F.
- symptoms of phytotoxicity on the plant (in words) (wheat seedlings; wheat, summary of Table 4): do not show any symptoms of phytotoxicity
- Activity P5 (Uromyces Appendiculatus; 30 ppm): 90%
- Activity P5 (Uromyces Appendiculatus; 125 ppm): 100%
- Phytotoxicity % N.F. (leaf necrosis) (bean seedlings; 30 ppm): 0 % N.F.
- Phytotoxicity % N.F. (leaf necrosis) (bean seedlings; 125 ppm): 0 % N.F.
- Activity P5 (Sphaerotheca Fuliginea; 30 ppm): 90%
- Activity P5 (Sphaerotheca Fuliginea; 125 ppm): 100%
- Phytotoxicity % N.F. (leaf necrosis) (cucumber seedlings; 30 ppm): 0 % N.F.
- Phytotoxicity % N.F. (leaf necrosis) (cucumber seedlings; 125 ppm): 0 % N.F.

Molecule: CCN(C)C=Nc1cc(Br)c(Sc2ccc(Cl)c(C(F)(F)F)c2)nc1C [Compound 8]
- effectiveness on Helmintosporium teres (in words) (Helmintosporium teres): higher effectiveness with respect to the reference compound CR4
- Activity P7 (Helmintosporium teres): 30%

Molecule: N-ethyl-N-methyl-N′-[5-bromo-2-methyl-6-[(1-methyl -2-propoxyethoxy]pyridyl-3-formamidine [CR3]
- Activity P7 (Parastagonospora nodorum): 57%

Molecule: N-ethyl-N-methyl-N′-[5-bromo-2-methyl-6-[(4-chloro-3-trifluoromethyl]phenoxy]pyridyl-3-formamidine [CR4, reference compound]
- effectiveness on Helmintosporium teres (in words) (Helmintosporium teres): completely inactive
- Activity P7 (Helmintosporium teres): 0%

— patent publication US20210100246A1, “PYRIDYL-FORMAMIDINES HAVING A FUNGICIDAL ACTIVITY, THEIR AGRONOMIC COMPOSITIONS AND USE THEREOF” (ISAGRO, S.p.A., priority 2017, published 2021)
